This experiment deals with K562 cell line. Briefly: MTT assay: cytotoxicity against the K562 cell line. The format is cell-based. Particulars: Homo sapiens, K562 cells, 72 h, growth inhibition. On the procedure:
Assessment of Cell Viability via MTT Assay: Cytotoxicity of compounds against the K562 cell line was assessed using the [3-(4,5-dimethylthiazol-2-yl)-2,5-diphenyl tetrazolium bromide] (MTT) assay. Fifteen thousand tumor cells were seeded into wells of flat-bottomed 96-well plates. An amount of 2 μL of a dilution series of each compound dissolved in DMSO was added to 198 μL of appropriate growth medium at three replicates per concentration and the plates were incubated in a 5% CO2 incubator at 37° C. After 72 h, the number of metabolically active cells was determined by MTT assay. Absorbance of each well was measured at 550 nm on a Tecan Sunrise reader. Dose-response curves for growth inhibition were generated as a percentage of untreated control. IC50 was determined by nonlinear regression (Prism, Graph Pad Software, Inc.).
(Tetrazolium dyes change colour on reduction, which living cells bring about.)

This passage reports IC50 results from patent US20130131018A1, “SUBSTITUTED ISOQUINOLINES AND THEIR USE AS TUBULIN POLYMERIZATION INHIBITORS” (Exonhit S.A., priority 2010, published 2013).

Counter-ions that a name gives are not always drawn.

On to `CCOc1ccc2c(C(=O)c3cc(OC)c(OC)c(OC)c3)cncc2c1NS(=O)(=O)NC(=O)OC(C)(C)C` [Compound 104, tert-Butyl N-(7-ethoxy-4-(3,4,5-trimethoxybenzoyl)isoquinolin-8-yl)sulfamoylcarbamate], for which it took 38.8 nM to reach half-maximal inhibition (IC50).

On to `CCOc1ccc2c(C(=O)c3cc(OC)c(OC)c(OC)c3)cncc2c1N=[N+]=[N-]` [Compound 108, 8-Azido-7-ethoxy-4-(3,4,5-trimethoxybenzoyl)isoquinoline], for which it took 74.8 nM to reach half-maximal inhibition (IC50). With `CCOc1ccc2c(Cc3cc(OC)c(NCc4ccccc4)c(OC)c3)cncc2c1O` [Compound 51, 4-(4-(Benzylamino)-3,5-dimethoxybenzyl)-7-ethoxyisoquinolin-8-ol hydrochloride], 741 nM corresponded to half-maximal inhibition (IC50). Then `CCOc1ccc2c(Cc3cc(OC)c(OC)c(OC)c3)cncc2c1` [Compound 16, 4-(3,4,5-Trimethoxybenzyl)-7-ethoxyisoquinoline hydrochloride], with 435 nM.

For `CCOc1ccc2c(Cc3cc(OC)c(OCC(CC)CC)c(OC)c3)cncc2c1O` [Compound 37, 7-Ethoxy-4-(4-(2-ethylbutoxy)-3,5-dimethoxybenzyl)isoquinolin-8-ol hydrochloride], the IC50 – broadly, the concentration needed to halve the response being measured – was found to be 899 nM. This IC50 is about 2.1-fold higher than that of the compound before.

Compound `O=C(Nc1ccncc1)C(=O)c1cn(Cc2ccc(Cl)cc2)c2ccccc12` [Indibulin, reference compound] had an IC50 of 197 nM. Then `CCOc1ccc2c(C(=O)c3cc(OC)c(OCC(C)C)c(OC)c3)cncc2c1O` [Compound 79, (7-Ethoxy-8-hydroxyisoquinolin-4-yl)(4-isobutoxy-3,5-dimethoxyphenyl)methanone hydrochloride], with 12.1 nM; and `CCOc1ccc2c(Cc3cc(OC)c(Nc4ccccc4)c(OC)c3)cncc2c1O` [Compound 52, 4-(3,5-Dimethoxy-4-(phenylamino)benzyl)-7-ethoxyisoquinolin-8-ol hydrochloride], with 118 nM; and `CCOc1ccc2c(Cc3cc(Cl)c(OC)c(Cl)c3)cncc2c1O` [Compound 69, 4-(3,5-Dichloro-4-methoxybenzyl)-7-ethoxyisoquinolin-8-ol hydrochloride], with 238 nM.

Consider `CCOc1c(OC)cc(Cc2cncc3c(OC)c(OC)ccc23)cc1OC` [Compound 9, 4-(4-Ethoxy-3,5-dimethoxybenzyl)-7,8-dimethoxyisoquinoline hydrochloride], for which the IC50 stood at 376 nM. In turn, `COc1ccc2c(Cc3cc(OC)c(OC)c(OC)c3)cncc2c1` [Compound 27, 4-(3,4,5-Trimethoxybenzyl)-7-methoxyisoquinoline hydrochloride] yielded an IC50 of 864 nM.

On to `CCOc1ccc2c(C(=S)c3cc(OC)c(OC)c(OC)c3)cncc2c1` [Compound 42, (7-Ethoxyisoquinolin-4-yl)(3,4,5-trimethoxyphenyl)methanethione hydrochloride], for which half-maximal inhibition (IC50) required 60.7 nM.

Take `CCOc1ccc2c(Cc3cc(Br)c(OC)c(OC)c3)cncc2c1O` [Compound 71, 4-(3-Bromo-4,5-dimethoxybenzyl)-7-ethoxyisoquinolin-8-ol hydrochloride]: it took 26 nM to reach half-maximal inhibition (IC50). Compared with the last compound, the IC50 is about 2.3-fold lower. Then `CCOc1ccc2c(Cc3cc(OC)c(OCC(=O)OC)c(OC)c3)cncc2c1O` [Compound 48, Methyl 2-(4-((7-ethoxy-8-hydroxyisoquinolin-4-yl)methyl)-2,6-dimethoxyphenoxy)acetate hydrochloride], with 812 nM.

As for `CCOc1ccc2c(C(=O)c3cc(Br)c(OC)c(OC)c3)cncc2c1OC(C)=O` [Compound 115, 4-(3-Bromo-4,5-dimethoxybenzoyl)-7-ethoxyisoquinolin-8-yl acetate], inhibition was half-maximal at 20.8 nM (IC50). As for `CCCOc1c(OC)cc(Cc2cncc3c(OC(=S)N(C)C)c(OCC)ccc23)cc1OC` [Compound 68, O-(4-(3,5-Dimethoxy-4-propoxybenzyl)-7-ethoxyisoquinolin-8-yl) dimethylcarbamothioate hydrochloride], the figure is 152 nM. Then `CCOc1ccc2c(Cc3cc(OC)c(OC)c(OC)c3)cncc2c1NC` [Compound 92, 7-Ethoxy-N-methyl-4-(3,4,5-trimethoxybenzyl)isoquinolin-8-amine dihydrochloride], with 943 nM; and `CCOc1ccc2c(C(=O)c3cc(OC)c(OC)c(OC)c3)cncc2c1NC(C)=O` [Compound 111, N-(7-Ethoxy-4-(3,4,5-trimethoxybenzoyl)isoquinolin-8-yl)acetamide hydrochloride], with 96.8 nM; and `CCOc1ccc2c(Cc3cc(OC)c(OC)c(OC)c3)cncc2c1N=[N+]=[N-]` [Compound 107, 8-Azido-7-ethoxy-4-(3,4,5-trimethoxybenzyl)isoquinoline], with 575 nM.

Compound `CCOc1ccc2c(Cc3cc(OC)c(CC)c(OC)c3)cncc2c1O` [Compound 73, 7-Ethoxy-4-(4-ethyl-3,5-dimethoxybenzyl)isoquinolin-8-ol hydrochloride] returned an IC50 of 335 nM. Consider `CCOc1ccc2c(Cc3cc(OC)c(OCC)c(OC)c3)cncc2c1` [Compound 13, 7-Ethoxy-4-(4-ethoxy-3,5-dimethoxybenzyl)isoquinoline hydrochloride], for which half-maximal inhibition (IC50) was put at 349 nM. The IC50 values of the last two compounds are within 1.5-fold of each other. In the case of `CCOc1ccc2c(Cc3cc(OC)c(N4CCCC4)c(OC)c3)cncc2c1O` [Compound 76, 4-(3,5-Dimethoxy-4-(pyrrolidin-1-yl)benzyl)-7-ethoxyisoquinolin-8-ol hydrochloride], the IC50 was determined as 312 nM.

The compound `CCOc1ccc2c(Cc3cc(I)c(OC)c(OC)c3)cncc2c1O` [Compound 72, 7-Ethoxy-4-(3-iodo-4,5-dimethoxybenzyl)isoquinolin-8-ol hydrochloride] registered an IC50 of 18.3 nM. Then `CCOc1ccc2c(Cc3cc(OC)c(OCC)c(OC)c3)cncc2c1OC` [Compound 46, 7-Ethoxy-4-(4-ethoxy-3,5-dimethoxybenzyl)-8-methoxyisoquinoline hydrochloride], with 688 nM; and `CCOc1ccc2c(Cc3cc(OC)c(OC)c(OCC(F)(F)F)c3)cncc2c1O` [Compound 87, 4-(3,4-Dimethoxy-5-(2,2,2-trifluoroethoxy)benzyl)-7-ethoxyisoquinolin-8-ol hydrochloride], with 254 nM. As for `CCOc1ccc2c(C(=O)c3cc(Br)c(OC)c(OC)c3)cncc2c1O` [Compound 116, (3-Bromo-4,5-dimethoxyphenyl)(7-ethoxy-8-hydroxyisoquinolin-4-yl)methanone hydrochloride], the figure is 86.9 nM; as for `CCOc1ccc2c(C(=NO)c3cc(OC)c(OC)c(OC)c3)cncc2c1` [Compound 41, (7-ethoxyisoquinolin-4-yl)(3,4,5-trimethoxyphenyl)methanone oxime hydrochloride], 123 nM; as for `CCOc1ccc2c(Cc3cc(OC)c(OCC(C)(C)C)c(OC)c3)cncc2c1O` [Compound 39, 4-(3,5-Dimethoxy-4-(neopentyloxy)benzyl)-7-ethoxyisoquinolin-8-ol hydrochloride], 400 nM.

Consider `CCOc1ccc2c(Cc3cc(OC)c(OC)c(OC)c3)cncc2c1Cl` [Compound 106, 8-Chloro-7-ethoxy-4-(3,4,5-trimethoxybenzyl)isoquinoline hydrochloride], for which inhibition was half-maximal at 885 nM (IC50). This IC50 is about 2.2-fold higher than that of the compound before. As for `CCOc1ccc2c(C(=O)c3cc(OC)c(OC)c(OC)c3)cncc2c1NC(=O)OCC(C)C` [Compound 113, Isobutyl (7-ethoxy-4-(3,4,5-trimethoxybenzoyl)isoquinolin-8-yl)carbamate hydrochloride], the figure is 231 nM; as for `CCOc1ccc2c(Cc3cc(OC)c(OCC)c([N+](=O)[O-])c3)cncc2c1O` [Compound 74, 7-ethoxy-4-(4-ethoxy-3-methoxy-5-nitrobenzyl)isoquinolin-8-ol hydrochloride], 238 nM. Then `CCOc1ccc2c(Cc3cc(Br)c(OCC)c(OC)c3)cncc2c1O` [Compound 77, 4-(3-Bromo-4-ethoxy-5-methoxybenzyl)-7-ethoxyisoquinolin-8-ol hydrochloride], with 48.6 nM. Then `CCOc1ccc2c(Cc3cc(OC)c(OCCOC)c(OC)c3)cncc2c1O` [Compound 22, 4-(4-(2-Methoxyethoxy)-3,5-dimethoxybenzyl)-7-ethoxyisoquinolin-8-ol hydrochloride], with 142 nM; and `CCOc1ccc2c(Cc3cc(OC)c(OCC#N)c(OC)c3)cncc2c1O` [Compound 50, 2-(4-((7-Ethoxy-8-hydroxyisoquinolin-4-yl)methyl)-2,6-dimethoxyphenoxy)acetonitrile hydrochloride], with 69.8 nM. In turn, `CCOc1ccc2c(C(=O)c3cc(OC)c(OCC)c(OC)c3)cncc2c1OCc1ccccc1` [Compound 55, (8-(Benzyloxy)-7-ethoxyisoquinolin-4-yl)(4-ethoxy-3,5-dimethoxyphenyl)methanone] yielded an IC50 of 422 nM.

Regarding `CCCCCOc1c(OC)cc(Cc2cncc3c(O)c(OCC)ccc23)cc1OC` [Compound 63, 4-(3,5-Dimethoxy-4-(pentyloxy)benzyl)-7-ethoxyisoquinolin-8-ol hydrochloride], it took 213 nM to reach half-maximal inhibition (IC50).

Consider `CCOc1ccc2c(C(=O)c3cc(OC)c(OC)c(OC)c3)cncc2c1NC(=O)[C@@H](N)Cc1ccccc1` [Compound 114, (S)-2-Amino-N-(7-ethoxy-4-(3,4,5-trimethoxybenzoyl)isoquinolin-8-yl)-3-phenylpropanamide dihydrochloride], for which half-maximal inhibition (IC50) required 92.6 nM. As for `C=C(c1cc(OC)c(OC)c(OC)c1)c1cncc2c(O)c(OCC)ccc12` [Compound 95, 7-Ethoxy-4-(1-(3,4,5-trimethoxyphenyl)vinyl)isoquinolin-8-ol hydrochloride], the figure is 49.7 nM.

Compound `CCOc1ccc2c(Cc3cc(OC)c(OC)c(OC)c3Cl)cncc2c1O` [Compound 110, 4-(2-Chloro-3,4,5-trimethoxybenzyl)-7-ethoxyisoquinolin-8-ol hydrochloride] displayed an IC50 of 68 nM.
